These results are taken from PMC7311950, “Potent Tetrahydroquinolone Eliminates Apicomplexan Parasites” (Frontiers in Cellular and Infection Microbiology, 2020).

Where only a bound is given, the exact number is not on record here.

Data set [1] concerns P-glycoprotein (P-gp, MDR1). Kind of data set: in vitro. Conditions: dog, MDCK-MDR1. As for the experimental part:
(§1) The effects of changing R1 as 7-Et, 7-Me, 6-CF3, or 6-Me on activity against RH strain tachyzoites, kinetic solubility, and metabolic stability were compared. Kinetic solubility and metabolic stability in human or murine liver microsomes were measured. The hERG (human Ether-à-go-go-Related) liability was also determined. The hERG gene (KCNH2) encodes a protein Kv11.1, the alpha subunit of a potassium ion channel. This channel conducts the rapid component of the delayed rectifier potassium current, IKr, which is critical for repolarization of cardiac action potentials. A reduction in hERG currents from adverse drug effects can lead to long QT interval syndromes. These syndromes are characterized by action potential prolongation, lengthening of the QT interval on surface EKG, and an increased risk for “torsade de pointes” arrhythmias and sudden death. The MDCK-MDR1 Permeability Assay was also performed. MDCK-MDR1 refers to the ability of a compound to permeate across membranes of MDCK-MDR1 (Madin Darby canine kidney [MDCK] cells with the MDR1 gene [ABCB1], the gene encoding for the efflux protein, P-glycoprotein (P-gp)) in vitro. Assessing transport in both directions (apical to basolateral and basolateral to apical) across the cell monolayers enables an efflux ratio to be determined. […] This provides a prediction of blood brain barrier (BBB) penetration potential/permeability and efflux ratio. Effect in CACO-2 (Colon Adenocarcinoma cells) as a permeability assay and on cytochrome P450 (CYP 450) were also determined. CYP enzymes catalyze oxidative biotransformation (phase 1 metabolism) of most drugs. CYP enzymes, bind to membranes in a cell (cyto) and contain a heme pigment (chrome and P) that absorbs light at a wavelength of 450 nm when exposed to carbon monoxide. Metabolism of a drug by CYP enzymes is a major source of variability in drug effect. These were measured by Chem Partners. The relative effect on HFF and parasite enzymes also were compared.
(§2) In vitro absorption, distribution, metabolism, excretion, and toxicity (ADMET) analyses of the THQ compounds were outsourced to ChemPartner Shanghai Ltd. ELQ-271 (synthesized in-house) was tested as a comparison.

The nature of data set [2]: Metabolic stability in human liver microsomes. As to conditions: for Human liver microsomes: stability, Figure 2E. As for the experimental part:
as §1, §2

The subject of data set [3] is cytochrome P450 (CYP 450), 4 of 5 isoforms tested. Description: CYP450 inhibition. The format is in vitro ADME. As to conditions: human; 4/5 isoforms.
The next data set concerns T. gondii RH tachyzoites. Kind of data set: RH YFP challenge, oral nanoformulation of JAG21. Type of data set: in vivo, Toxoplasma gondii. Conditions: for parasite burden reduced: peritoneal fluid 5 days later. As for the experimental part: JAG21 was prepared using hydroxyethyl cellulose (HEC) and Tween 80. Briefly, this dispersant solution containing 5 mg/mL HEC and 2 mg/mL Tween 80 in water was prepared. Solid JAG21 was added to 20 mg/mL, and the dispersion was sonicated for 60 s using a Sonics vc50 probe-tip sonicator set to 20 kHz to homogenize. Sonication was performed at room temperature. Aliquots of the homogeneous dispersion were frozen and lyophilized using a VirTis AdVantage freeze drier. These aliquots were stored at room temperature for 5–6 months. Prior to dosing, aliquots were reconstituted using water. Controls containing no JAG21 were also prepared. Following reconstitution with water, the dispersion was imaged using a Nikon ECLIPSE E200 optical microscope set to 40x magnification. The average particle size of the JAG21 dispersion in HEC/Tween 80 was determined using an in-house image analysis program. This novel method to stably formulate JAG21 was discovered after all other studies were completed and this was the last experiment in this manuscript performed as a consequence.
For studies of the nano formulated JAG 21, this was administered for 1 or 3 days by gavage in the doses shown in the results section. These C57BL6 background mice received 2000 RH tachyzoites IP. on day the first day of the experiment and peritoneal fluid was collected 5 days later to quantitate fluorescence and numbers of parasites.

For data set [4], the system named is P-glycoprotein (P-gp, MDR1/ABCB1). Kind of data set: in vitro. As to conditions: dog, MDCK-MDR1. As for the experimental part:
as §1, §2

With `Cc1[nH]c2c(c(=O)c1-c1ccc(Oc3ccc(OC(F)(F)F)cc3)cc1)CCCC2` [JAG21, 2-Methyl-3-(4-(4-(Trifluoromethoxy)Phenoxy)Phenyl)-5,6,7,8-Tetrahydroquinolin-4-One], in data set [1], the Papp was above 10 ×10⁻⁶ cm/s and the efflux ratio is below 1.5. For the same molecule, in data set [2] (after 45 min), the “remaining in human liver microsomes” value is recorded as above 99%. In addition, the Human liver microsomes result in data set [2] is “∞”. The molecule further showed a 50% inhibitory concentration (IC50) in data set [3] above 10 µM. Further, the parasite burden reduced in the data set with T. gondii RH tachyzoites (single dose 10 mg/kg) is given as ~ 60%. Further, the parasite burden reduced with T. gondii RH tachyzoites (single dose 20 mg/kg) is recorded as ~ 60%. For the same molecule, the parasite burden result in the data set on T. gondii RH tachyzoites (three doses of 10 mg/kg on first 3 days, fifth day) is reported as “markedly reduced”.
Consider `Cc1[nH]c2c(c(=O)c1-c1ccc(Oc3ccc(Cl)cc3)cc1)CCCC2` [JAG50], for which, in data set [4], the Papp is above 10 ×10⁻⁶ cm/s and the efflux ratio is below 1.5. In data set [2] (human, liver microsomes), this molecule gave a half-life of 99 min. In data set [2], the Human liver microsomes stood at 99.04 min.
